# Species on record: Rattus norvegicus
# Assay: Open TG-GATES - Regimen: Single
# Type: toxicity, organism-based, Sprague-Dawley
# Set-up: regimen Single, gender Male, age 6 weeks
# Details: in vivo, po, 30 mg/kg, route gavage, dose level Low; for APTT / Bas / Eos / Fbg / Hb / Ht / Lym / MCH / MCHC / MCV / Mono / Neu / PT / Plat / RBC / Ret / WBC: tissue Blood; for KIDNEY_L / KIDNEY_R / KIDNEY_TOTAL: tissue Kidney; for LIVER: tissue Liver; for A/G / ALP / ALT / AST / BUN / CRE / Ca / Cl / DBIL / GLC / IP / K / LDH / Na / PL / RALB / TBIL / TC / TG / TP / gamma-GTP: tissue Plasma
compound,measurement,setting,value
CCOC(=O)C(C)(C)Oc1ccc(Cl)cc1 [CLOFIBRATE],TERMINAL_BW,3 h,228.4 g
same,APTT,3 h,19.1 s
same,Bas,3 h,0%
same,Eos,3 h,1%
same,Fbg,3 h,234.4 mg/dL
same,Hb,3 h,13.3 g/dL
same,Ht,3 h,38.4%
same,Lym,3 h,80.4%
same,MCH,3 h,21.8 pg
same,MCHC,3 h,34.6%
same,MCV,3 h,62.9 fL
same,Mono,3 h,2.6%
same,Neu,3 h,15.6%
same,PT,3 h,12.3 s
same,Plat,3 h,121.4 x10_4/uL
same,RBC,3 h,611.2 x10_4/ul
same,Ret,3 h,7.5%
same,WBC,3 h,87.8 x10_2/uL
same,KIDNEY_L,3 h,1 g
same,KIDNEY_R,3 h,1 g
same,KIDNEY_TOTAL,3 h,2 g
same,LIVER,3 h,10.5 g
same,A/G,3 h,1.6
same,ALP,3 h,1038.6 IU/L
same,ALT,3 h,38.8 IU/L
same,AST,3 h,71 IU/L
same,BUN,3 h,12.2 mg/dL
same,CRE,3 h,0.3 mg/dL
same,Ca,3 h,11.2 mg/dL
same,Cl,3 h,102.4 meq/L
same,DBIL,3 h,0.4 mg/dL
same,GLC,3 h,199.2 mg/dL
same,IP,3 h,9 mg/dL
same,K,3 h,3.9 meq/L
same,LDH,3 h,199.6 IU/L
same,Na,3 h,139.6 meq/L
same,PL,3 h,178.4 mg/dL
same,RALB,3 h,3.4 g/dL
same,TBIL,3 h,0.4 mg/dL
same,TC,3 h,84 mg/dL
same,TG,3 h,194 mg/dL
same,TP,3 h,5.6 g/dL
same,gamma-GTP,3 h,1.2 IU/L
same,TERMINAL_BW,6 h,224.5 g
same,APTT,6 h,18.6 s
same,Bas,6 h,0%
same,Eos,6 h,1%
same,Fbg,6 h,230 mg/dL
same,Hb,6 h,13.5 g/dL
same,Ht,6 h,38.9%
same,Lym,6 h,78.4%
same,MCH,6 h,21.7 pg
same,MCHC,6 h,34.7%
same,MCV,6 h,62.5 fL
same,Mono,6 h,2.6%
same,Neu,6 h,17.2%
same,PT,6 h,12.3 s
same,Plat,6 h,125.7 x10_4/uL
same,RBC,6 h,623.2 x10_4/ul
same,Ret,6 h,7.3%
same,WBC,6 h,115.7 x10_2/uL
same,KIDNEY_L,6 h,1 g
same,KIDNEY_R,6 h,1 g
same,KIDNEY_TOTAL,6 h,1.9 g
same,LIVER,6 h,9.8 g
same,A/G,6 h,1.6
same,ALP,6 h,1119.8 IU/L
same,ALT,6 h,35.4 IU/L
same,AST,6 h,69.2 IU/L
same,BUN,6 h,7.8 mg/dL
same,CRE,6 h,0.4 mg/dL
same,Ca,6 h,10.7 mg/dL
same,Cl,6 h,103.8 meq/L
same,DBIL,6 h,0.1 mg/dL
same,GLC,6 h,194.6 mg/dL
same,IP,6 h,9 mg/dL
same,K,6 h,4 meq/L
same,LDH,6 h,273 IU/L
same,Na,6 h,140.8 meq/L
same,PL,6 h,143.6 mg/dL
same,RALB,6 h,3.5 g/dL
same,TBIL,6 h,0.2 mg/dL
same,TC,6 h,73 mg/dL
same,TG,6 h,88 mg/dL
same,TP,6 h,5.7 g/dL
same,gamma-GTP,6 h,1.4 IU/L
same,TERMINAL_BW,9 h,223 g
same,APTT,9 h,18.8 s
same,Bas,9 h,0%
same,Eos,9 h,1%
same,Fbg,9 h,228.4 mg/dL
same,Hb,9 h,13.2 g/dL
same,Ht,9 h,37.7%
same,Lym,9 h,79.8%
same,MCH,9 h,21.5 pg
same,MCHC,9 h,34.9%
same,MCV,9 h,61.7 fL
same,Mono,9 h,3.2%
same,Neu,9 h,15.8%
same,PT,9 h,12.8 s
same,Plat,9 h,137.4 x10_4/uL
same,RBC,9 h,611.4 x10_4/ul
same,Ret,9 h,7.4%
same,WBC,9 h,101.8 x10_2/uL
same,KIDNEY_L,9 h,1 g
same,KIDNEY_R,9 h,1 g
same,KIDNEY_TOTAL,9 h,1.9 g
same,LIVER,9 h,9.1 g
same,A/G,9 h,1.6
same,ALP,9 h,814.2 IU/L
same,ALT,9 h,27.6 IU/L
same,AST,9 h,61.4 IU/L
same,BUN,9 h,11.2 mg/dL
same,CRE,9 h,0.4 mg/dL
same,Ca,9 h,10.5 mg/dL
same,Cl,9 h,101.6 meq/L
same,DBIL,9 h,0.076 mg/dL
same,GLC,9 h,216 mg/dL
same,IP,9 h,11.1 mg/dL
same,K,9 h,3.9 meq/L
same,LDH,9 h,238.8 IU/L
same,Na,9 h,140.2 meq/L
same,PL,9 h,127.2 mg/dL
same,RALB,9 h,3.4 g/dL
same,TBIL,9 h,0.1 mg/dL
same,TC,9 h,65.2 mg/dL
same,TG,9 h,54.2 mg/dL
same,TP,9 h,5.5 g/dL
same,gamma-GTP,9 h,1 IU/L
same,TERMINAL_BW,24 h,238.3 g
same,APTT,24 h,20.6 s
same,Bas,24 h,0%
same,Eos,24 h,1%
same,Fbg,24 h,215.6 mg/dL
same,Hb,24 h,13.5 g/dL
same,Ht,24 h,39%
same,Lym,24 h,82%
same,MCH,24 h,21.8 pg
same,MCHC,24 h,34.8%
same,MCV,24 h,62.7 fL
same,Mono,24 h,2.8%
same,Neu,24 h,13.6%
same,PT,24 h,12.6 s
same,Plat,24 h,123.8 x10_4/uL
same,RBC,24 h,620.8 x10_4/ul
same,Ret,24 h,6.6%
same,WBC,24 h,103.6 x10_2/uL
same,KIDNEY_L,24 h,1 g
same,KIDNEY_R,24 h,1 g
same,KIDNEY_TOTAL,24 h,2 g
same,LIVER,24 h,11.1 g
same,A/G,24 h,1.7
same,ALP,24 h,1108.2 IU/L
same,ALT,24 h,34.2 IU/L
same,AST,24 h,66.4 IU/L
same,BUN,24 h,13.8 mg/dL
same,CRE,24 h,0.4 mg/dL
same,Ca,24 h,10.8 mg/dL
same,Cl,24 h,102.8 meq/L
same,DBIL,24 h,0.084 mg/dL
same,GLC,24 h,203.8 mg/dL
same,IP,24 h,7.1 mg/dL
same,K,24 h,3.9 meq/L
same,LDH,24 h,243 IU/L
same,Na,24 h,140.6 meq/L
same,PL,24 h,141 mg/dL
same,RALB,24 h,3.4 g/dL
same,TBIL,24 h,0.1 mg/dL
same,TC,24 h,65 mg/dL
same,TG,24 h,110.4 mg/dL
same,TP,24 h,5.5 g/dL
same,gamma-GTP,24 h,0.6 IU/L
